Assay results taken from patent US20240327372A1, “PREPARATION OF PHENE[…] […] STEREOISOMERS THEREOF AND PRECURSORS THEREOF” (priority 2022, published 2024).

How the values were obtained:
[1] = biological target: serotonin transporter (SERT) (Rattus norvegicus (Rat), UniProt P31652); experiment: Competition radioligand binding, [3H]Citalopram, rat brain membranes; conditions: for IC50 / Ki: 5-HT transporter; for Ki: Cheng-Prusoff
Excerpt: (§1) Rat brain (Sprague Dawley, 200-250 g) synaptosomes were isolated from midbrain and hindbrain for serotonin transporter assays, striatum for dopamine transporter assays, and hippocampus plus overlying occipital cortex for norepinephrine transporter assays. Radioligands used were: [^3H]Citalopram 81.4 Ci/mmol (PerkinElmer NET1039250UC; Lot No. 2960876). [^3H]WIN35428 82.8 Ci/mmol (PerkinElmer NET1033250UC; Lot No. 2891473). [^3H]Nisoxetine 79.2 Ci/mmol (PerkinElmer NET1084250UC; Lot No. 2970324). Non-specific compounds used were: Citalopram (Tocris Bioscience 1427). JHW007 (Tocris Bioscience 4351). Nomifensine (Abcam ab146004). Test Compounds for the study were: racemic methylone HCl; (R)-methylone HCl; (S)-methylone HCl.
(§2) For membrane preparations, rat brains were dissected, tissue was added to ice-cold lysis buffer (50 mM Tris HCl; 5 mM MgCl2; 5 mM EDTA; protease inhibitor cocktail) and homogenized. The homogenate was centrifuged at 100×g for 2 minutes and the supernatant divided into polypropylene Eppendorf tubes. The supernatants were centrifuged at 17,000×g for 10 minutes at 4° C. to re-pellet the cell lysate. The pellet was resuspended in fresh wash buffer (50 mM Tris-HCl; 5 mM MgCl2; 5 mM EDTA) and centrifuged a third time at 17,000×g for 10 minutes at 4° C. The pellet was resuspended in wash buffer containing 10% sucrose as a cryoprotectant, divided into aliquots (0.3 mL) and stored at −80° C. A sample of the homogenate was analyzed for protein content using the MERCK® BCA assay. On the day of the assay, the membrane preparation was thawed and the pellet resuspended in final assay buffer.
(§3) Competition binding assays were carried out in 96-well polypropylene plates in a final volume of 250 μL per well. To each well was added 150 μL membranes, 50 μL of test compound, non-specific compound or buffer, and 50 μL radioligand solution in buffer. The plate was incubated at 30° C. for 90 minutes with gentle agitation. The incubation was stopped by vacuum filtration onto presoaked (wash buffer with PEI) GF/C filters using a 96-well FILTERMATE™ harvester, followed by 5 washes with ice-cold wash buffer. Filters were then dried under a warm air stream, sealed in polyethylene, scintillation cocktail added, and the radioactivity counted in a WALLAC® TriLux 1450 MicroBeta counter. For each concentration of drug, non-specific binding was subtracted from total binding to give specific binding. Data was fitted using the non-linear curve fitting routines in PRISM® (Graphpad Software Inc) to determine IC50. Ki was subsequently calculated using the ChengPrusoff equation.

DAT = DAT (Rattus norvegicus (Rat), UniProt P23977); experiment: DA release study; assay type: biochemical
NET = experiment: NE release study; assay type: biochemical
hERG = hERG (Homo sapiens (Human), UniProt Q12809); experiment: hERG Potassium Channel Assay, Qube APC; assay type: cell-based; conditions: Antagonist mode, test compound
Protocol: Where presented, IC50 values were determined by a non-linear, least squares regression analysis.
Recombinant HEK-293 cells stably transfected with human Nav1.5 cDNA, recombinant HEK293 cell line expressing the human Cav1.2 (L-type voltage gated calcium channel, hCav1.2 α1C/β2a/α2δ1, and recombinant CHO-K1 cells stably transfected with human hERG cDNA were used separately in each of these assays.
hERG Potassium Channel Assay—Qube APC After whole cell configuration is achieved, the cells are held at −80 mV. Cells are held at this voltage for 50 ms to measure the leak current, which is subtracted from the tail current on-line. The cells are depolarized to +40 mV for 500 ms and then to −80 mV over a 100 ms ramp to elicit the hERG tail current. This paradigm is delivered once every 8 s to monitor the current amplitude.

SERT = SERT (Rattus norvegicus (Rat), UniProt P31652); experiment: [3H]5-HT uptake inhibition in rat brain synaptosomes; assay type: biochemical
Protocol: Materials used were: Neurotransmitters [3H]5-HT (PerkinElmer, NET498001MC) [^3H]Dopamine (PerkinElmer, NET673250UC) [^3H]Norepinephrine (PerkinElmer, NET377250UC); Test Compounds Racemic methylone HCl (Merck, M-140); (R)-methylone HCl (Pisgah Labs); (S)-methylone HCl (Pisgah Labs); Reference Compounds Citalopram (Tocris Bioscience 1427). JHW007 (Tocris Bioscience 4351). Nomifensine (Abcam ab146004).
Synaptosomes were prepared from Sprague Dawley (200-250 g) rat brain regions (hippocampus for NE, striatum for DA and midbrain for 5-HT) using standard protocols. Tissues were dissected, added to sucrose buffer (0.32 M), homogenized with a dounce-homogenizer and centrifuged at 100×g to remove cells and debris. Supernatant was collected and centrifuged 17,000×g for 10 minutes at 4° C. to pellet the synaptosomes. The pellet was resuspended in fresh assay buffer.
Uptake assays were carried out in 96-well plates in a final volume of 250 μL per well. To each well was added 150 μL synaptosomes, 50 μL test, non-specific compound or buffer alone. The plate was incubated at 30° C. for 30 minutes with gentle agitation. 50 μL radiolabeled neurotransmitter in buffer was then added to each well to initiate the uptake. The plate was incubated at 30° C. for a further 5 minutes with gentle agitation. The incubation was stopped by vacuum filtration onto presoaked GF/C filters using a 96-well FilterMate™ harvester, followed by 3 washes with ice-cold wash buffer. Filters were then dried under a warm air stream, sealed in polyethylene, scintillation cocktail added, and the radioactivity counted in a Wallac® TriLux 1450 MicroBeta counter.
For each concentration of drug, non-specific uptake was subtracted from total uptake to give specific uptake. Data was fitted using the non-linear curve fitting routines in Prism® (Graphpad Software Inc) to determine IC50.

[2] = biological target: dopamine transporter (DAT) (Rattus norvegicus (Rat), UniProt P23977); experiment: Competition radioligand binding, [3H]WIN35428, rat brain membranes; conditions: for IC50 / Ki: DA transporter; for Ki: Cheng-Prusoff
Excerpt: as §1, §2, §3

Chain of hERG (Q12809 whole entry): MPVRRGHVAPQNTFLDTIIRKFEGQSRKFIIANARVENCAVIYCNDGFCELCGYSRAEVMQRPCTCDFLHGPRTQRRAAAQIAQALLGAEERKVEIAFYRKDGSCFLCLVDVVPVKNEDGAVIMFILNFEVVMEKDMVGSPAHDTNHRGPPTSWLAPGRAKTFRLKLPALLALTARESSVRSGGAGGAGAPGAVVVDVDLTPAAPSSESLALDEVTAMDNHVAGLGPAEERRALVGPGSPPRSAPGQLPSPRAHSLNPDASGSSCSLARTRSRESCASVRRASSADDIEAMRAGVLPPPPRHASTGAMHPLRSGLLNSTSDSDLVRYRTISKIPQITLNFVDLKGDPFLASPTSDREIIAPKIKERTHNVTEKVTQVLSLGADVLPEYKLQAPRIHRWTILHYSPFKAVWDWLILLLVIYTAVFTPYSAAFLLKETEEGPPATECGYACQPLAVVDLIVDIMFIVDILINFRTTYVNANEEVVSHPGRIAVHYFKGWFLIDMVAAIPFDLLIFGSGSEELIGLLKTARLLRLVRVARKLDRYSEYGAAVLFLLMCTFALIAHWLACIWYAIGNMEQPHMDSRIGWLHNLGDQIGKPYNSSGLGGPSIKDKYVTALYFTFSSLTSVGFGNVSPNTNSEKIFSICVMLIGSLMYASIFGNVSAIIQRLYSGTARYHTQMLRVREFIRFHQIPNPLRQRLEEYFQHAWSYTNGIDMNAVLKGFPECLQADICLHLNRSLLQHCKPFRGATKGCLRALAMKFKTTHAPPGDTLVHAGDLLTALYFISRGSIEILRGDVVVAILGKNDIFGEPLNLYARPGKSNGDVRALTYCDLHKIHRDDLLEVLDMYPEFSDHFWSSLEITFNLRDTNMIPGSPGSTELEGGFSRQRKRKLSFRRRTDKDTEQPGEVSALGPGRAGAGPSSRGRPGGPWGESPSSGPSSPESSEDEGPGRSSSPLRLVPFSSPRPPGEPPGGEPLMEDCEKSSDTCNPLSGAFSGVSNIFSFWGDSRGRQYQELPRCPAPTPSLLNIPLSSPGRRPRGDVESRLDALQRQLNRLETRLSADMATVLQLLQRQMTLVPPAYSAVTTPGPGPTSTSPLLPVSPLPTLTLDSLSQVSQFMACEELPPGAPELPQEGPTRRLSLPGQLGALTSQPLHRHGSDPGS

| SMILES | IC50 [1] | Ki [1] | Potency relative to racemic methylone ([1]; SERT binding) | EC50 (DAT) | EC50 (NET) | Estimated IC50 (hERG) | IC50 (SERT) | IC50 [2] | Ki [2] | Potency relative to racemic methylone ([2]; DAT binding) |
| --- | --- | --- | --- | --- | --- | --- | --- | --- | --- | --- |
| CN[C@H](C)C(=O)c1ccc2c(c1)OCO2 [(R)-methylone] | 34.7 µM | 21.1 µM | approximately three-fold less potent | 4.77 µM | 0.191 µM | N/C (N/C indicates observed mean inhibition was <25%) | 7.62 µM | 24.7 µM | 12.3 µM | approximately three-fold less potent |
| CN[C@@H](C)C(=O)c1ccc2c(c1)OCO2 [(S)-methylone] | 6.52 µM | 3.95 µM |  | 3.28 µM | 0.76 µM | N/C (N/C indicates observed mean inhibition was <25%) | 0.395 µM | 8.34 µM | 4.14 µM |  |
